Values belong to the molecule of their own block, whether it stands above or below them.
Columns and labels:
human P-selectin [1] = biological target: T1, human P-selectin (Homo sapiens, UniProt P16109); assay: Competition assay with biotin-PAA-Le^a-SO3H; conditions: read-out: IC50, inhibition of biotin-PAA-Le^a-SO3 binding to human P-selectin
T1 construct: purchased R&D Systems Europe Ltd., Abingdon, United Kingdom
Procedure: (§1) Gallic acid (Acros, Geel, Belgium) was assayed for its ability to inhibit TM11-PO binding to human P-selectin. […] For competition studies, a 96 wells microtiter plate (high binding, flat bottom, Costar, Corning, U.S.A.) was coated overnight at 4° C. with 10 μg/ml goat anti-human IgG (Fc specific) (Sigma-Aldrich, Zwijndrecht, the Netherlands) in coating buffer (50 mM NaHCO3, pH 9.6). Subsequently, wells were washed with assay buffer and incubated for 1 hour at 37° C. with blocking buffer (3% BSA in assay buffer). After washing with assay buffer, the wells were incubated for 2 hours at 37° C. with the human P-selectin IgG-Fc chimera (R&D Systems Europe Ltd., Abingdon, United Kingdom) (0.3 μg/ml). Subsequently, wells were washed with assay buffer and incubated for 1 hour at 4° C. with the TM11-PO complex. The wells were washed six times with washing buffer (0.1% Tween 20 in assay buffer). […] (TMB)/hydrogen peroxide (H2O2) (Pierce, Rochford, U.S.A.) was added and wells were incubated at room temperature for 15 minutes. The reaction was halted by addition of 2 M H2SO4 and the absorbance was measured at 450 nm.
(§2) To be able to test gallic acid binding also to other members of the selectin family (i.e. E- and L-selectin), biotin-PAA-Le^a-SO3H (Synthesone, Munich, Germany) instead of TM11-PO was used as ligand in the competition assay. This polyacrylamide (PAA) based polymer with attached sulfo-Lewis A groups, is an established selectin ligand.
(§3) Experimentally, the same procedure was used as in example 7 however with the following differences. After washing with assay buffer, the wells were incubated for 2 hours at 37° C. with the human P-selectin IgG-Fc chimera, mouse P-selectin IgG-Fc chimera, human L-selectin IgG-Fc chimera and human E-selectin IgG-Fc chimera respectively (all from R&D Systems Europe Ltd., Abingdon, United Kingdom) (0.3 μg/ml). Subsequently the wells of the microtiter plate were incubated with biotin-PAA-Le^a-SO3H (0.33 μg/ml) for 2 hours at 37° C., instead of with the TM11-PO-complex.

platelets = assay: TRAP-induced platelet aggregation in platelet-rich plasma; assay type: cell-based, human; conditions: for Maximal platelet aggregation: TRAP 6.5 μM, human PRP
Procedure: Freshly drawn venous blood from healthy volunteers was collected with an informed consent into 1/10 volume of 3.2% tri-sodium citrate (w/v). These donors denied to have taken aspirin or other platelet function inhibitors during the previous ten days. Platelet-rich plasma (PRP) was prepared by centrifugation (150 g, 15 min, 22° C.). PRP was adjusted to a final concentration of 200,000 platelets/μl with platelet-poor plasma (PPP), which was obtained after an additional centrifugation step of the remaining blood (1100 g, 15 min, 22° C.). PRP was left for 30 min at 37° C. to ensure a resting state of the platelets. Afterwards, PRP was incubated for 5 min with different concentrations of gallic acid, EGCG or solvent at 37° C. Samples were transferred to an aggregometer (Kordia BV, Leiden, The Netherlands) to determine platelet aggregation at a stirring speed of 900 r.p.m. Platelet aggregation was initiated after preincubation with different concentrations of GA or EGCG (0, 50, 250 and 500 μM) by the addition of thrombin receptor activating peptide (TRAP, 6.5 μM, 37° C.).

[2] = test system: leukocyte-platelet conjugates rolling over femoral vein endothelium; assay: In vivo rolling/tumbling of leukocyte-platelet conjugates (rosettes) over femoral vein endothelium; parameters: species or system mice
Procedure: Human blood was collected on 1:6 acid-citrate-dextrose (ACD: 93 mM trisodium citrate, 7 mM citric acid, 140 mM dextrose, pH 6.5) and 1 μM tirofiban. Human platelet rich plasma (PRP) was prepared via centrifugation at 150 g for 15 min. Murine blood was collected on 20 μg/ml hirudin and was centrifuged at 800 g for 30 sec, immediately followed by a second centrifugation at 150 g for 5 min to prepare PRP. The isolated PRP (human or murine) was then mixed with two volumes of ACD and recentrifuged at 800 g for 5 min. Subsequently, washed platelets were resuspended in HEPES-Tyrode's buffer (5 mM HEPES, 137 mM NaCl, 2.7 mM KCl, 12 mM NaHCO3, 0.36 mM NaH2PO4, 1% (w/v) glucose, pH 7.3) containing 1% (v/v) human serum albumin (HAS) at 10^6 platelets/μl. They were then incubated for 20 min at 37° C. with 5 μM calcein-AM, an acetoxymethyl ester, fluorescent once cleaved by non-specific esterases inside the cell, with no detectable effect on platelet function in our perfusion studies. The platelet suspension was then centrifuged at 700 g for 25 min and fluorescent platelets were resuspended in HEPES-Tyrode's buffer, and murine platelets were injected as such in mice.
All animal experiments were reviewed and approved by the Institutional Review Board of the University of Leuven and were performed in compliance with the guidelines of the International Society on Thrombosis and Haemostasis (Giles AR). For the study of platelet-assisted leukocyte rolling over the endothelial surface of blood vessels in vivo, on-line video microscopy was performed in mice. […] mice (6-12 weeks old) were anesthetized with Nembutal (70 mg/kg) via i.p. injection, and the jugular vein was catheterized. The femoral vein was exposed and mice were positioned on the table of an inverted epifluorescent microscope, such that the blood circulation in the femoral vein could be visualized through a Cohu CCD video camera. Fluorescent-labeled murine platelets were then injected in the catheterized jugular vein (500×10^6 platelets in 200 μl) and baseline rolling was recorded for the labeled platelets. […] After 5 min, the collagen-induced rolling and tumbling of leukocyte-platelet conjugates was then recorded for 10 min. The number of rosettes rolling were counted and their average tumbling speed was calculated from the registered movies. To address the effect of gallic acid on rosette rolling, it was infused 5 min prior to collagen administration and the rosette rolling was analysed as in the controls. […] Tumbling rosettes were counted 10 min after the collagen injection, before and after gallic acid infusion of 0.75 to 7.5 mg/kg.h. […]

human P-selectin [3] = biological target: T1, human P-selectin; assay: Competition assay of gallic acid with TM11-PO; assay type: binding
Procedure: as §1

human E-selectin = biological target: T2, human E-selectin (Homo sapiens, UniProt P16581); assay: Competition assay with biotin-PAA-Le^a-SO3H; assay type: binding; conditions: concentrations up to 1 mM; biotin-PAA-Le^a-SO3H ligand
T2 construct: purchased R&D Systems Europe Ltd., Abingdon, United Kingdom
Procedure: as §1, §2, §3

human L-selectin = biological target: T3, human L-selectin (Homo sapiens, UniProt P14151); assay: Competition assay with biotin-PAA-Le^a-SO3H; assay type: binding
T3 construct: purchased R&D Systems Europe Ltd., Abingdon, United Kingdom
Procedure: as §1, §2, §3

mouse P-selectin = biological target: T4, mouse P-selectin (Mus musculus, UniProt Q01102); assay: Competition assay with biotin-PAA-Le^a-SO3H; assay type: binding; conditions: biotin-PAA-Le^a-SO3H ligand
T4 construct: purchased R&D Systems Europe Ltd., Abingdon, United Kingdom
Procedure: as §1, §2, §3

[4] = test system: HL60 cells / human P-selectin expressing Chinese hamster ovary cells (CHO-P); assay: Dynamic interactions between HL60 cells and CHO-P monolayers in parallel-plate perfusion chamber; assay type: cell-based
Procedure: Chinese hamster ovary (CHO) cells stably transfected with human P-selectin (CHO—P) were kindly donated by Dr. Modderman (University of Amsterdam, Amsterdam, the Netherlands). Cells were grown in DMEM (BioWhittaker Europe, Verviers, Belgium) containing 10% foetal calf serum (FCS) (BioWitthaker), 5 mM L-glutamine, 20,000 units penicillin/streptomycin (BioWhittaker) and 5 mM non-essential amino acids (Gibco, Paisley, United Kingdom). Flasks with cells were incubated at 37° C. in 5% CO2 for 3 or 4 days until cells had grown nearly confluent.
HL60 cells were from ATCC and grown in RPMI 1640 medium (BioWhittaker) with 10% FCS, 5 mM L-glutamine and 20,000 units penicillin/streptomycin.
Dynamic interactions between […], displaying a high expression of PSGL-1, the natural P-selectin ligand, and human P-selectin expressing Chinese hamster ovary cell (CHO—P cells) monolayers grown onto glass coverslips coated with 30 μg/ml collagen S (type I) (Roche Diagnosis, Brussels, Belgium) were analysed in a parallel-plate perfusion chamber with a method adapted from G. Theilmeier (Blood 1999, 94: 2725-2734). The coverslip constituted the bottom of the chamber and the actual chamber was formed by a 254-μm height silicon rubber gasket designed with a conically shaped flow path, thus resulting in a 3-fold increase of wall shear rate from the inlet of the chamber to the outlet. Calcein-AM labeled HL60 cells, suspended in RPMI (0.5×10^6/ml) were perfused at 37° C. and at a flow rate of 1 ml/min with an inverted syringe pump (Harvard Instruments, South Natick, Mass., U.S.A.). The flow chamber was mounted on the table platform of an inverted epifluorescence microscope (Diaphot; Nikon, Melville, N.Y., U.S.A.) coupled to a Cohu CCD video camera (COHU Inc, San Diego, Calif., U.S.A.) and HL60 cell translocation over CHO—P monolayers were measured at wall shear rates of 300 and 600 s-1. Gallic acid was added to HL60 cell suspensions 2 minutes before the onset of perfusion. To prevent oxidation, the gallic acid solution was prepared freshly. Real time movies of 12 seconds (10 images per second), recorded at predefined positions in the flow path corresponding to chosen wall shear rates were stored and digitised with a Scion LG3 frame grabber (Scion Corp, Frederick, Mich., U.S.A.). The average velocity of HL60 cells rolling over the CHO—P cells was calculated from the rolling distance of the HL60 cells in a 1 second timeframe, using the NIH Image program version 6.1. The number of adhered HL60 cells was counted from pictures taken during the same experiment.

T1 sequence (P16109 with tags, fused parts or gaps limits assumed): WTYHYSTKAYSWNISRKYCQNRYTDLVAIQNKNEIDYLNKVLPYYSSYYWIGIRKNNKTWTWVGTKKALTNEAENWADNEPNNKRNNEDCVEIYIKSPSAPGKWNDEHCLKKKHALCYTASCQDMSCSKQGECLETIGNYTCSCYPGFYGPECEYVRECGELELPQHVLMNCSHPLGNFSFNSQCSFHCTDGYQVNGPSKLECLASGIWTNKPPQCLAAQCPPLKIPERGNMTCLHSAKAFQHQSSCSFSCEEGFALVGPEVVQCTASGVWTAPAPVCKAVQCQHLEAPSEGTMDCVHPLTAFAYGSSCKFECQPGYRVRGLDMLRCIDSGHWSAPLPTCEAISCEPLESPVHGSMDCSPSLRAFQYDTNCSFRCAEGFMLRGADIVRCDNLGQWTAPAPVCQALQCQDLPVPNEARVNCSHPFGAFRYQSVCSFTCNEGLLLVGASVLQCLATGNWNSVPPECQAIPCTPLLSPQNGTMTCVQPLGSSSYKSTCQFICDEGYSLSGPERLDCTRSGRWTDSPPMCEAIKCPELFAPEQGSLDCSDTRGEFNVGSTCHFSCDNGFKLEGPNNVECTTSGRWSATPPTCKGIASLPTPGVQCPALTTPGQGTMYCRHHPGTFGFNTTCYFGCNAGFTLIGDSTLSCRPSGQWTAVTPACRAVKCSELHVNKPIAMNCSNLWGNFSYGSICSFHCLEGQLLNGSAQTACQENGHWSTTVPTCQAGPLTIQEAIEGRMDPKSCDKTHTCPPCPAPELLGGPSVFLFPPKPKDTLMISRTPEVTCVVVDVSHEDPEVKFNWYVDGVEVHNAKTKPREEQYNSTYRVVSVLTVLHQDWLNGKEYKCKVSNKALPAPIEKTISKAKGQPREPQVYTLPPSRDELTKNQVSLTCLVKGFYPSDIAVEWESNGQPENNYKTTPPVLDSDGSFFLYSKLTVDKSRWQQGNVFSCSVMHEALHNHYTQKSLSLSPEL
T2 sequence (P16581 with tags, fused parts or gaps limits assumed): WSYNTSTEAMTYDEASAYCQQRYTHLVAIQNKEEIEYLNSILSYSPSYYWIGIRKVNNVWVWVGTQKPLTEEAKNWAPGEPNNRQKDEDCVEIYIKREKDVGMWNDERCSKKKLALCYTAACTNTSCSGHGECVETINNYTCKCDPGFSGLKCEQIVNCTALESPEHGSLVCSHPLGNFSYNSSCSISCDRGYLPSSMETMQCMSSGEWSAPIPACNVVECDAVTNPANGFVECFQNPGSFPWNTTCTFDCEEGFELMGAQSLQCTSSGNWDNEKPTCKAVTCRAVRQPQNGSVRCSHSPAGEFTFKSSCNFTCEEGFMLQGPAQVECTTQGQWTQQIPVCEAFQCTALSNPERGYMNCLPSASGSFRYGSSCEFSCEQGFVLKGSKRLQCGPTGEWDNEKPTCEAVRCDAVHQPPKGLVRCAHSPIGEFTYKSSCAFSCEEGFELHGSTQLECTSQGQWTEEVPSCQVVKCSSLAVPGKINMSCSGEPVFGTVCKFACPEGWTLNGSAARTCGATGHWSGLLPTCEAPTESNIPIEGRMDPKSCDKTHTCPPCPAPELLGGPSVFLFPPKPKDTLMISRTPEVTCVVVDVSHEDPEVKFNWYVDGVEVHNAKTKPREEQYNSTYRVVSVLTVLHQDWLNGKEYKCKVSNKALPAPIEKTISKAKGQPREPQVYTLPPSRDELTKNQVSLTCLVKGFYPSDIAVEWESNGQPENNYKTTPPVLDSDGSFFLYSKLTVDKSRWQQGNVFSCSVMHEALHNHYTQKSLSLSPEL
T4 sequence (Q01102 with tags, fused parts or gaps limits assumed): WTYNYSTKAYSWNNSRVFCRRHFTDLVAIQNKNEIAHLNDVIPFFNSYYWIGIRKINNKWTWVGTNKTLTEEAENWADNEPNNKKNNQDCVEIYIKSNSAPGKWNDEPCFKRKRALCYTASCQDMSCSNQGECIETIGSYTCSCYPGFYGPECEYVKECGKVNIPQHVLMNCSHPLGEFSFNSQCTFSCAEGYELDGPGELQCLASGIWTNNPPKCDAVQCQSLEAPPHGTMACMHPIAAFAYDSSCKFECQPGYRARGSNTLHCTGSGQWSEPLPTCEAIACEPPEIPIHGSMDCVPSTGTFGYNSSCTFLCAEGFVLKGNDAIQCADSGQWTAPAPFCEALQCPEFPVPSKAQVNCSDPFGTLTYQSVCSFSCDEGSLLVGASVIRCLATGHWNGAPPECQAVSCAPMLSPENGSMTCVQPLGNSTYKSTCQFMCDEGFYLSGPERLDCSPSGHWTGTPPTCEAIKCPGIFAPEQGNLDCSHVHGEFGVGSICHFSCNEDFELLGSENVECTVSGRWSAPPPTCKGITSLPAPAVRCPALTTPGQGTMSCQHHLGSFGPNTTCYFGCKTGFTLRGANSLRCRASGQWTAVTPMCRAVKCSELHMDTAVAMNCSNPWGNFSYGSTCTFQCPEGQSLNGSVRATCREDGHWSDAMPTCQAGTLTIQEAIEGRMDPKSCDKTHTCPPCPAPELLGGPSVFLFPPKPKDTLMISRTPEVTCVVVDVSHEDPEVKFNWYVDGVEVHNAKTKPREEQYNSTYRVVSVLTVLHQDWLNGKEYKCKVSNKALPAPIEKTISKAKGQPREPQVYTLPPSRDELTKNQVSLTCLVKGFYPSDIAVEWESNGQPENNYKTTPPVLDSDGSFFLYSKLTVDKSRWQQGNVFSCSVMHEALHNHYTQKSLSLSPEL
T3 sequence (P14151 with tags, fused parts or gaps limits assumed): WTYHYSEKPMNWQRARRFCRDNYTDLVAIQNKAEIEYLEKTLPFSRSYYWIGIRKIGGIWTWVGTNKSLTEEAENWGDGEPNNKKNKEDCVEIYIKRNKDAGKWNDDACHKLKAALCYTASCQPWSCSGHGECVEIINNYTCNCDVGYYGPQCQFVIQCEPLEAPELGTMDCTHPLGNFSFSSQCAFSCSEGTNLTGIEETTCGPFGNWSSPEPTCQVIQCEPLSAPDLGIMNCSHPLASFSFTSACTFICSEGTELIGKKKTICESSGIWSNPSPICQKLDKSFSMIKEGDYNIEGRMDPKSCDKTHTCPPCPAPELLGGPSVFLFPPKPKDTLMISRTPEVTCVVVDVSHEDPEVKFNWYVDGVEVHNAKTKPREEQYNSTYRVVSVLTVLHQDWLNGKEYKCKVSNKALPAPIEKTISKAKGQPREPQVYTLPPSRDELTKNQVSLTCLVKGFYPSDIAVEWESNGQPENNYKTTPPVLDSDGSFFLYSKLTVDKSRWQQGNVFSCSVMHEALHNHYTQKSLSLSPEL

Molecule: O=C(O)c1ccc(O)cc1 [4-hydroxy benzoic acid]
IC50 (human P-selectin [1]): > 300 µM

Molecule: O=C(O)c1cc(O)c(O)c(O)c1 [gallic acid, 3,4,5-trihydroxybenzoic acid]
Maximal platelet aggregation (platelets; 250 μM): no significant inhibition
Maximal platelet aggregation (platelets; 500 μM): inhibit platelet aggregation significantly
IC50 (human P-selectin [1]): ~85 µM
Conjugate rolling over femoral vein endothelium, number of conjugates rolling per unit of surface ([2]; C57/B16 mice (WT), FIG. 8A): Dose-dependent inhibition
Rolling of preformed leukocyte-platelet conjugates, percentage of rolling in absence of gallic acid ([2]; aged atherosclerotic ApoE-/- mice, FIG. 8B): Inhibition
Effective plasma concentration corresponding to ED50 ([2]; mice, at ED50 of rosette tumbling): 40 µM
ED50, dose giving half maximal inhibition of rosette tumbling ([2]; mice, infusion 0.75 to 7.5 mg/kg.h, counted 10 min after collagen injection): 1.5±0.4 mg/kg.h
IC50 (human P-selectin [3]): 7.2 µM
Inhibition of E-selectin binding (human E-selectin): less than 20%
IC50 (human L-selectin): 241 µM
Binding to P-selectin, mouse versus human (mouse P-selectin): species-independent
Change of HL60 cell adhesion to CHO-P monolayer vs untreated control ([4]; 50 μM, wall shear rate 300 s^-1): −34%
Change of HL60 cell adhesion to CHO-P monolayer vs untreated control ([4]; 50 μM, wall shear rate 600 s^-1): −43%
Change of HL60 cell adhesion to CHO-P monolayer vs untreated control ([4]; 250 μM, wall shear rate 300 s^-1): −41%
Change of HL60 cell adhesion to CHO-P monolayer vs untreated control ([4]; 250 μM, wall shear rate 600 s^-1): −54%
Rolling velocity of HL60 cells across CHO-P monolayer ([4]; 50 and 250 μM): doubled

Molecule: (−)-epigallocatechin gallate [EGCG]
Maximal platelet aggregation (platelets; 250 μM): no significant inhibition
Maximal platelet aggregation (platelets; 500 μM): inhibit platelet aggregation significantly
IC50 (human P-selectin [1]): 114 µM

Other lines, results leading:

IC50 (human P-selectin [1]): > 300 µM
Molecule: O=C(O)/C=C/c1ccc(O)c(O)c1 [caffeic acid]

Platelet lysis (platelets; human platelets, not usable in aggregation test): causes platelet lysis
IC50 (human P-selectin [1]): > 300 µM
Molecule: CCCCCCCCCCCCOC(=O)c1cc(O)c(O)c(O)c1 [n-dodecyl gallate]
